According to PubChem BioAssay AID248 (DTP/NCI, 2004):
Values joined by “and” are separate entries in the source; they are usually repeats but may differ in a detail not shown here. Equal entries are not always repeated. Toxic doses and inconclusive results are not listed. No stated cut-off is given here; in the data, active means T/C of 150% or more; inactive means T/C below 125%.

Tested on: L1210 leukemia ip in BDF1 mice, survival T/C
Experiment: NCI In Vivo Anticancer Drug Screen. Data for tumor model L1210 Leukemia (intraperitoneal) in B6D2F1 (BDF1) mice
Conditions: endpoint: mean survival time, higher = longer survival
Procedure, shortened: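 Each compound was tested against a transplantable tumor grown in mice. The endpoint was survival, with treated animals benchmarked against vehicle controls as a simple ratio.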

[1] = dose: 100.0 mg/kg/injection, schedule: Q01DX001 (ip), vehicle: saline
[2] = dose: 200.0 mg/kg/injection, schedule: Q01DX001 (ip), vehicle: saline
[3] = dose: 400.0 mg/kg/injection, schedule: Q01DX001 (ip), vehicle: saline
[4] = dose: 100.0 mg/kg/injection, schedule: Q04DX003 (ip), vehicle: saline
[5] = dose: 100.0 mg/kg/injection, schedule: Q01DX001 (ip), vehicle: other
[6] = dose: 200.0 mg/kg/injection, schedule: Q01DX001 (ip), vehicle: other
[7] = dose: 100.0 mg/kg/injection, schedule: Q01DX009 (ip), vehicle: saline with Tween-80
[8] = dose: 100.0 mg/kg/injection, schedule: Q04DX003 (ip), vehicle: saline with Tween-80
[9] = dose: 200.0 mg/kg/injection, schedule: Q04DX003 (ip), vehicle: saline
[10] = dose: 400.0 mg/kg/injection, schedule: Q04DX003 (ip), vehicle: saline
[11] = dose: 200.0 mg/kg/injection, schedule: Q01DX009 (ip), vehicle: saline with Tween-80
[12] = dose: 400.0 mg/kg/injection, schedule: Q01DX009 (ip), vehicle: saline with Tween-80
[13] = dose: 200.0 mg/kg/injection, schedule: Q04DX003 (ip), vehicle: saline with Tween-80
[14] = dose: 400.0 mg/kg/injection, schedule: Q04DX003 (ip), vehicle: saline with Tween-80
[15] = dose: 100.0 mg/kg/injection, schedule: Q04DX003 (ip), vehicle: Klucel (hydroxypropylcellulose) (HPC)
[16] = dose: 200.0 mg/kg/injection, schedule: Q04DX003 (ip), vehicle: Klucel (hydroxypropylcellulose) (HPC)
[17] = dose: 100.0 mg/kg/injection, schedule: Q04DX002 (ip), vehicle: saline
[18] = dose: 200.0 mg/kg/injection, schedule: Q04DX002 (ip), vehicle: saline
[19] = dose: 400.0 mg/kg/injection, schedule: Q04DX002 (ip), vehicle: saline
[20] = dose: 400.0 mg/kg/injection, schedule: Q04DX003 (ip), vehicle: Klucel (hydroxypropylcellulose) (HPC)
[21] = dose: 100.0 mg/kg/injection, schedule: Q01DX001 (ip), vehicle: carboxymethylcellulose (CMC)
[22] = dose: 200.0 mg/kg/injection, schedule: Q01DX001 (ip), vehicle: carboxymethylcellulose (CMC)
[23] = dose: 400.0 mg/kg/injection, schedule: Q01DX001 (ip), vehicle: carboxymethylcellulose (CMC)
[24] = dose: 100.0 mg/kg/injection, schedule: Q01DX009 (ip), vehicle: Klucel (hydroxypropylcellulose) (HPC)
[25] = dose: 200.0 mg/kg/injection, schedule: Q01DX009 (ip), vehicle: Klucel (hydroxypropylcellulose) (HPC)
[26] = dose: 400.0 mg/kg/injection, schedule: Q01DX009 (ip), vehicle: Klucel (hydroxypropylcellulose) (HPC)

Measured: T/C

O=[N+]([O-])c1cccc(/C=N/N(c2ccccc2)C2CCS(=O)(=O)C2)c1 (configuration not stated)
inactive: dose: 100.0 mg/kg/injection, schedule: Q04DX002 (ip), vehicle: Klucel (hydroxypropylcellulose) (HPC) 95 % of control | dose: 200.0 mg/kg/injection, schedule: Q04DX002 (ip), vehicle: Klucel (hydroxypropylcellulose) (HPC) 106 % of control | dose: 400.0 mg/kg/injection, schedule: Q04DX002 (ip), vehicle: Klucel (hydroxypropylcellulose) (HPC) 103 % of control

CSCCNC(=O)C(=O)NCCSC
inactive: dose: 100.0 mg/kg/injection, schedule: Q04DX002 (ip), vehicle: other 95 % of control | dose: 200.0 mg/kg/injection, schedule: Q04DX002 (ip), vehicle: other 88 % of control | dose: 400.0 mg/kg/injection, schedule: Q04DX002 (ip), vehicle: other 98 % of control

Cc1cccc2ccc3cccc(C)c3c12
inactive: [1] 98 % of control | [2] 92 % of control | [3] 95 % of control

[Cl][Sn]([Cl])([Cl])[Cl]
inactive: [4] 95 % of control

OCc1nc2cc(Cl)c(Cl)cc2[nH]1
inactive: [1] 93 % of control | [2] 96 % of control | [3] 102 % of control

Cc1ccc(OCC(=O)Nc2c(Cl)cc(Cl)cc2Cl)c(C)c1
inactive: dose: 100.0 mg/kg/injection, schedule: Q04DX002 (ip), vehicle: gum acacia 92 % of control | dose: 200.0 mg/kg/injection, schedule: Q04DX002 (ip), vehicle: gum acacia 89 % of control

CC(Oc1nc2c(c(=O)n(C)c(=O)n2C)n1C)C1CCCCC1 (configuration not stated)
inactive: dose: 50.0 mg/kg/injection, schedule: Q01DX001 (ip), vehicle: other 95 % of control | [5] 98 % of control | [6] 93 % of control

O=C1c2ccccc2C(=O)N1C1CCC(O)CC1 (configuration not stated)
inactive: dose: 25.0 mg/kg/injection, schedule: Q01DX009 (ip), vehicle: saline with Tween-80 101 % of control | dose: 25.0 mg/kg/injection, schedule: Q04DX003 (ip), vehicle: saline with Tween-80 107 % of control | dose: 50.0 mg/kg/injection, schedule: Q01DX009 (ip), vehicle: saline with Tween-80 93 % of control | dose: 50.0 mg/kg/injection, schedule: Q04DX003 (ip), vehicle: saline with Tween-80 102 % of control | dose: 100.0 mg/kg/injection, schedule: Q01DX001 (ip), vehicle: saline with Tween-80 103 % of control | [7] 103 % of control | [8] 102 % of control

Cc1ccc(S(=O)(=O)N(C)c2ccc(C#N)cc2F)cc1
inactive: [4] 102 % of control | [9] 98 % of control | [10] 102 % of control

C#CCn1c2ccccc2c2ccccc21
inactive: [1] 97 % of control | [7] 95 % of control | [2] 103 % of control | [11] 101 % of control | [3] 103 % of control | [12] 96 % of control

OC1CCCC/C1=C/C=C/c1ccccc1 (configuration not stated)
inactive: [8] 89 % of control and 97 % of control | [13] 92 % of control | [14] 90 % of control and 94 % of control

O=C1N(c2ccccc2)C(=O)N1c1ccccc1
inactive: [15] 93 % of control | [16] 96 % of control

C=C/C=C1\CCOC1=O
inactive: [1] 102 % of control | dose: 100.0 mg/kg/injection, schedule: Q01DX009 (ip), vehicle: saline 101 % of control and 112 % of control | [17] 100 % of control and 111 % of control | [4] 112 % of control | [2] 116 % of control | dose: 200.0 mg/kg/injection, schedule: Q01DX009 (ip), vehicle: saline 104 % of control and 118 % of control | [18] 104 % of control | [9] 100 % of control | [3] 110 % of control | dose: 400.0 mg/kg/injection, schedule: Q01DX009 (ip), vehicle: saline 107 % of control and 115 % of control | [19] 100 % of control and 102 % of control | [10] 115 % of control

CN(C)CCN1C(=O)c2ccccc2C(C(C)(C)[N+](=O)[O-])c2ccccc21 (configuration not stated)
inactive: [15] 102 % of control | [16] 98 % of control | [20] 93 % of control

O=C(c1ccccc1)N1CC2CC3OC3c3cccc1c32 (configuration not stated)
inactive: [8] 88 % of control | [13] 92 % of control

CCOC(=O)c1cc(Cl)c2c(ccc3ccccc32)n1
inactive: [21] 115 % of control | dose: 100.0 mg/kg/injection, schedule: Q01DX009 (ip), vehicle: carboxymethylcellulose (CMC) 92 % of control | dose: 100.0 mg/kg/injection, schedule: Q04DX002 (ip), vehicle: carboxymethylcellulose (CMC) 100 % of control and 103 % of control | dose: 100.0 mg/kg/injection, schedule: Q04DX003 (ip), vehicle: carboxymethylcellulose (CMC) 105 % of control | [22] 103 % of control | dose: 200.0 mg/kg/injection, schedule: Q01DX009 (ip), vehicle: carboxymethylcellulose (CMC) 92 % of control | dose: 200.0 mg/kg/injection, schedule: Q04DX002 (ip), vehicle: carboxymethylcellulose (CMC) 93 % of control and 97 % of control | dose: 200.0 mg/kg/injection, schedule: Q04DX003 (ip), vehicle: carboxymethylcellulose (CMC) 115 % of control | [23] 97 % of control | dose: 400.0 mg/kg/injection, schedule: Q01DX009 (ip), vehicle: carboxymethylcellulose (CMC) 98 % of control | dose: 400.0 mg/kg/injection, schedule: Q04DX002 (ip), vehicle: carboxymethylcellulose (CMC) 93 % of control and 95 % of control | dose: 400.0 mg/kg/injection, schedule: Q04DX003 (ip), vehicle: carboxymethylcellulose (CMC) 107 % of control

O=C(Nc1cccc(C(=O)O)c1)Nc1cccc(Cl)c1Cl
inactive: [24] 98 % of control | [25] 95 % of control | [26] 105 % of control

O=C1c2ccccc2-c2cc(Br)c(NC(=O)C(F)(F)F)cc21
inactive: [8] 108 % of control | [13] 105 % of control | [14] 100 % of control

CCN(CC)CCCC(C)Nc1ncnc2ncc3c(c12)CCCC3 (configuration not stated)
inactive: [17] 102 % of control | [18] 98 % of control

O=C(Nc1[nH]nc2nccnc12)C(F)(F)F
inactive: [7] 97 % of control | [8] 105 % of control | [11] 92 % of control | [13] 97 % of control | [12] 103 % of control | [14] 100 % of control

O=C(O)c1c(Br)c(Br)c(Br)c(Br)c1C(=O)O
inactive: [17] 107 % of control | [18] 110 % of control | [19] 103 % of control

Clc1ccccc1Nc1c2ccccc2nc2ccccc12
inactive: [4] 100 % of control | [9] 102 % of control | [10] 96 % of control

Nc1ccc(S(=O)(=O)Nc2ccc(I)cc2)cc1
inactive: [24] 100 % of control | [15] 100 % of control | [25] 96 % of control | [16] 97 % of control | [26] 93 % of control | [20] 92 % of control

CS(=O)(=O)NCC1OC(n2cnc3c(N)ncnc32)C(O)C1O (configuration not stated)
inactive: [1] 104 % of control | [2] 96 % of control | [3] 98 % of control

CCCCOB1OC(c2ccccc2)(c2ccccc2)c2ccccc2C(c2ccccc2)(c2ccccc2)O1
inactive: [21] 91 % of control | [22] 91 % of control | [23] 98 % of control

CCCCCCCCCCCCCCCCS(=O)(=O)c1ccc(S(=O)(=O)CS(C)(=O)=O)cc1[N+](=O)[O-]
inactive: [5] 98 % of control | [6] 91 % of control
